Measured values as given in US20230263822A1, “MODULATION OF FACTOR 11 EXPRESSION” (Ionis Pharmaceuticals, Inc., priority 2008, published 2023).

Key:
[1] = test system: Factor 11 mRNA; assay: Factor 11 mRNA in cynomolgus monkey liver, day 85 (Example 45); assay type: in vivo; settings: cynomolgus monkeys, s.c. escalating doses 5-25 mg/kg over 12 weeks
Procedure: (§1) Groups, each consisting of two male and three female monkeys, were injected subcutaneously with ISIS 416838, ISIS 416850, ISIS 416858, ISIS 416864, or ISIS 417002 in escalating doses. Antisense oligonucleotide was administered to the monkeys at 5 mg/kg three times per a week for week 1; 5 mg/kg twice per week for weeks 2 and 3; 10 mg/kg three times per week for week 4; 10 mg/kg twice per week for weeks 5 and 6; 25 mg/kg three times per week for week 7; and 25 mg/kg twice per week for weeks 8, 9, 10, 11, and 12. One control group, consisting of two male and three female monkeys, was injected subcutaneously with PBS according to the same dosing regimen. An additional experimental group, consisting of two male and three female monkeys, was injected subcutaneously with ISIS 416850 in a chronic, lower dose regimen. Antisense oligonucleotide was administered to the monkeys at 5 mg/kg three times per week for week 1; 5 mg/kg twice per week for week 2 and 3; 10 mg/kg three times per week for week 4; and 10 mg/kg twice per week for weeks 5 to 12. Body weights were measured weekly. Blood samples were collected 14 days and 5 days before the start of treatment and subsequently once per week for Factor 11 protein activity analysis in plasma, fibrinogen measurement, PT and aPTT measurements, bleeding times, and measurement of various hematologic factors. On day 85, the monkeys were euthanized by exsanguination while under deep anesthesia, and organs harvested for further analysis.
On day 85, RNA was extracted from liver tissue for real-time PCR analysis of Factor 11 using primer probe set LTS00301 (forward primer sequence […], designated herein as SEQ ID NO 271; reverse primer sequence […], designated herein as SEQ ID NO: 272; and probe sequence TGCAGGCACAGCATCCCAGTGTTCTX, designated herein as SEQ ID NO. 273). Results are presented as percent inhibition of Factor 11, relative to PBS control.

[2] = test system: human Factor 11 mRNA; assay: Dose-dependent inhibition of human Factor 11 in HepG2 cells, electroporation 123.46-10,000 nM (Example 31); assay type: cell-based; settings: for Percent inhibition of Factor 11 mRNA at 123.47 nM / Percent inhibition of Factor 11 mRNA at 370.37 nM / IC50: electroporation; for Percent inhibition of Factor 11 mRNA at 123.47 nM / Percent inhibition of Factor 11 mRNA at 370.37 nM / Percent inhibition of Factor 11 mRNA at 1,111.11 nM / Percent inhibition of Factor 11 mRNA at 3,333.33 nM / Percent inhibition of Factor 11 mRNA at 10,000.0 nM: approx. 16 hours, relative to untreated control cells; for Percent inhibition of Factor 11 mRNA at 1,111.11 nM: electroporation, 1,111.11 nM; for Percent inhibition of Factor 11 mRNA at 3,333.33 nM: electroporation, 3,333.33 nM; for Percent inhibition of Factor 11 mRNA at 10,000.0 nM: electroporation, 10,000.0 nM; for IC50: Factor 11 mRNA expression
Outline: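 HepG2 cells were electroporated with antisense oligonucleotide at 123.46, 370.37, 1,111.11, 3,333.33 and 10,000 nM and harvested about 16 hours later. Factor 11 mRNA was quantified by qRT-PCR and normalised to total RNA (RIBOGREEN). Inhibition is expressed relative to untreated cells.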

[3] = test system: blood coagulation; assay: PT and aPTT assay in cynomolgus monkeys (Example 45); assay type: in vivo; settings: escalating dose regimen, platelet poor plasma
Procedure: as §1
Blood samples were collected in tubes containing sodium citrate. PT and aPTT were determined in duplicate with an ACL 9000 coagulation instrument (Instrumentation Laboratory, Italy). The results were interpolated on a standard curve of serial dilutions citrated control monkey plasma tested to give a reported result in percent normal.
Prothrombin Time (PT) and Activated Partial Thromboplastin Time (aPTT) were measured using platelet poor plasma (PPP) from monkeys treated with ISIS oligonucleotides. PT and aPTT values are provided in Tables 116 and 117 and are reported as International Normalized Ratio (INR) values. INR values for PT and aPTT were determined by dividing the PT or aPTT value for each experimental group by the PT or aPTT for the PBS treated group. This ratio was then raised to the power of the International Sensitivity Index (ISI) of the tissue factor used. The ISIS oligonucleotide, ISIS 416850, given with the chronic dose regimen is distinguished from the other oligonucleotides with an asterisk (*).

[4] = Bleeding assay, Surgicutt Jr. device (Example 45); assay type: in vivo, cynomolgus monkeys; parameters: unit not given here; settings: escalating dose regimen
Procedure: as §1
On different days during the treatment period, bleeding assay was performed using a Surgicutt Jr. device (ITC, New Jersey). Monkeys were placed in monkey chair with their arm placed in a steady support. The arm was lightly shaved and a sphygmomanometer was placed on the upper arm. The cuff of the sphygmomanometer was inflated to 40 mm Hg and this pressure was maintained throughout the procedure. The area on the upper arm to be incised was cleansed with an antiseptic swab and the Surgicutt Jr device was used to make an incision over the lateral aspect, volar surface of the forearm, parallel to and 5 cm below the antecubital crease. At the exact moment the incision was made, a stopwatch was started. Every 30 seconds, blood from the incision was blotted out using a blotting paper without directly touching the incision, so that formation of the platelet plug was not disturbed. Blood was blotted out every 30 seconds until blood no longer stained the paper. The stopwatch was then stopped and the bleeding time determined. The sphygmomanometer was removed from the animal's arm, the incision site was antiseptically swabbed and a wound closure strip applied. The ISIS oligonucleotide, ISIS 416850, given with the chronic dose regimen is distinguished from the other oligonucleotides with an asterisk (*).

416838 (antisense GCAACCGGGATGATGAGTGC; 5-10-5 gapmer, further chemistry not given here) [compound 416838]
% inhibition of Factor 11 mRNA in the cynomolgus monkey liver relative to the PBS control [1]: 37%

416864 (antisense GGCAGCGGACGGCATTGGTG; 5-10-5 gapmer, further chemistry not given here) [compound 416864]
% inhibition of Factor 11 mRNA in the cynomolgus monkey liver relative to the PBS control [1]: 44%

416850 (antisense TGCACAGTTTCTGGCAGGCC; 5-10-5 gapmer, further chemistry not given here) [compound 416850]
% inhibition of Factor 11 mRNA in the cynomolgus monkey liver relative to the PBS control [1]: 84%
Percent inhibition of Factor 11 mRNA at 123.47 nM [2]: 0%
Percent inhibition of Factor 11 mRNA at 370.37 nM [2]: 12%
Percent inhibition of Factor 11 mRNA at 1,111.11 nM [2]: 36%
Percent inhibition of Factor 11 mRNA at 3,333.33 nM [2]: 74%
Percent inhibition of Factor 11 mRNA at 10,000.0 nM [2]: 73%
IC50 [2]: 2800 nM

416858 (antisense ACGGCATTGGTGCACAGTTT; 5-10-5 gapmer, further chemistry not given here) [compound 416858]
% inhibition of Factor 11 mRNA in the cynomolgus monkey liver relative to the PBS control [1]: 90%
Percent inhibition of Factor 11 mRNA at 123.47 nM [2]: 0%
Percent inhibition of Factor 11 mRNA at 370.37 nM [2]: 27%
Percent inhibition of Factor 11 mRNA at 1,111.11 nM [2]: 36%
Percent inhibition of Factor 11 mRNA at 3,333.33 nM [2]: 64%
Percent inhibition of Factor 11 mRNA at 10,000.0 nM [2]: 70%
IC50 [2]: 2200 nM

ISIS 416858: MOE gapmer, nucleobases 1275 to 1318 of SEQ ID NO: 1 (Table 8) (antisense ACGGCATTGGTGCACAGTTT; MOE gapmer, wing and gap sizes not given here)
PT ratio (INR) ([3]; day 8): 1.05
aPTT ratio (INR) ([3]; day 8): 1.03
PT ratio (INR) ([3]; day 15): 1.07
aPTT ratio (INR) ([3]; day 15): 1.07
PT ratio (INR) ([3]; day 22): 1.06
aPTT ratio (INR) ([3]; day 22): 1.18
PT ratio (INR) ([3]; day 29): 1.08
aPTT ratio (INR) ([3]; day 29): 1.20
PT ratio (INR) ([3]; day 36): 1.07
aPTT ratio (INR) ([3]; day 36): 1.36
PT ratio (INR) ([3]; day 43): 1.08
aPTT ratio (INR) ([3]; day 43): 1.28
PT ratio (INR) ([3]; day 50): 1.03
aPTT ratio (INR) ([3]; day 50): 1.55
PT ratio (INR) ([3]; day 57): 1.09
aPTT ratio (INR) ([3]; day 57): 1.59
PT ratio (INR) ([3]; day 64): 1.09
aPTT ratio (INR) ([3]; day 64): 1.60
PT ratio (INR) ([3]; day 71): 1.07
aPTT ratio (INR) ([3]; day 71): 1.70
PT ratio (INR) ([3]; day 78): 1.10
aPTT ratio (INR) ([3]; day 78): 1.79
PT ratio (INR) ([3]; day 85): 1.07
aPTT ratio (INR) ([3]; day 85): 1.76
PT ratio (INR) ([3]; day −5): 1.00
aPTT ratio (INR) ([3]; day −5): 1.00
PT ratio (INR) ([3]; day −14): 1.00
aPTT ratio (INR) ([3]; day −14): 1.00
bleeding time ([4]; day 15): 146
bleeding time ([4]; day 22): 100
bleeding time ([4]; day 36): 206
bleeding time ([4]; day 43): 111
bleeding time ([4]; day 57): 138
bleeding time ([4]; day 64): 113
bleeding time ([4]; day 78): 186
bleeding time ([4]; day 85): 191
bleeding time ([4]; day −5): 149
bleeding time ([4]; day −14): 154

417002 (antisense GGTGCACAGTTTCTGGCAGG; 2-13-5 gapmer chemistry, further chemistry not given here) [compound 417002]
% inhibition of Factor 11 mRNA in the cynomolgus monkey liver relative to the PBS control [1]: 57%

ISIS 416864: MOE gapmer, nucleobases 1275 to 1318 of SEQ ID NO: 1 (Table 8) (antisense GGCAGCGGACGGCATTGGTG; MOE gapmer, wing and gap sizes not given here)
PT ratio (INR) ([3]; day 8): 1.02
aPTT ratio (INR) ([3]; day 8): 1.05
PT ratio (INR) ([3]; day 15): 1.07
aPTT ratio (INR) ([3]; day 15): 1.03
PT ratio (INR) ([3]; day 22): 1.03
aPTT ratio (INR) ([3]; day 22): 1.11
PT ratio (INR) ([3]; day 29): 1.06
aPTT ratio (INR) ([3]; day 29): 1.13
PT ratio (INR) ([3]; day 36): 1.06
aPTT ratio (INR) ([3]; day 36): 1.19
PT ratio (INR) ([3]; day 43): 1.04
aPTT ratio (INR) ([3]; day 43): 1.07
PT ratio (INR) ([3]; day 50): 1.01
aPTT ratio (INR) ([3]; day 50): 1.26
PT ratio (INR) ([3]; day 57): 1.08
aPTT ratio (INR) ([3]; day 57): 1.19
PT ratio (INR) ([3]; day 64): 1.10
aPTT ratio (INR) ([3]; day 64): 1.12
PT ratio (INR) ([3]; day 71): 1.07
aPTT ratio (INR) ([3]; day 71): 1.18
PT ratio (INR) ([3]; day 78): 1.08
aPTT ratio (INR) ([3]; day 78): 1.18
PT ratio (INR) ([3]; day 85): 1.13
aPTT ratio (INR) ([3]; day 85): 1.25
PT ratio (INR) ([3]; day −5): 1.00
aPTT ratio (INR) ([3]; day −5): 1.00
PT ratio (INR) ([3]; day −14): 1.00
aPTT ratio (INR) ([3]; day −14): 1.00
bleeding time ([4]; day 15): 153
bleeding time ([4]; day 22): 133
bleeding time ([4]; day 36): 205
bleeding time ([4]; day 43): 146
bleeding time ([4]; day 57): 216
bleeding time ([4]; day 64): 218
bleeding time ([4]; day 78): 170
bleeding time ([4]; day 85): 203
bleeding time ([4]; day −5): 111
bleeding time ([4]; day −14): 166
